Values of other authors as cited in US20100129448A1, “TOPICAL HYDROGEL COMPOSITION” (Nanotherapeutics, Inc., priority 2008, published 2010).

| aqueous solubility (pH greater than 6) | solubility (neutral pH) | Structure (SMILES) |
| --- | --- | --- |
| less than 0.8 mg/ml | – | C[C@H]1c2cccc(O)c2C(=O)C2=C(O)[C@]3(O)C(=O)C(C(N)=O)=C(O)[C@@H](N(C)C)[C@@H]3[C@@H](O)[C@@H]21 [Doxycycline Monohydrate] |
| – | less than 10 mg/ml | C[C@H]1c2cccc(O)c2C(=O)C2=C(O)[C@]3(O)C(=O)C(C(N)=O)=C(O)[C@@H](N(C)C)[C@@H]3[C@@H](O)[C@@H]21 [Doxycycline] |
